# Experimental data from PMC9098913, “In vitro reconstitution of Escherichia coli divisome activation” (Nature Communications, 2022).
# Values joined by “and” are separate entries in the source; they are usually repeats but may differ in a detail not shown here. Identical values can stand only once. Like-named read-outs stand apart in the source and are kept apart here.
# Assays:
# FtsA/Z co-filaments = format: biochemical, E. coli; conditions: Fig. 2g, mean
# Experimental: By fitting an exponential function to the increase of the PCC with time, we were able to extract the corresponding recruitment rate (Fig. 2f, g).
# Subsequently, the chamber was washed 6x with reaction buffer, to remove bulk peptide. To visualize colocalization with either FtsZ or FtsA, either a mix of FtsA and Alexa488-FtsZ or Cy3-FtsA and FtsZ was added. […] The time-lapse videos were recorded for 10 min after the addition, with one frame per 2 s.
# [1] = Single-molecule diffusion coefficient of FtsA on the membrane; conditions: for Diffusion Coefficient: single-particle tracking, n = 3; for Single Molecule Diffusion Constant, mean: mean of Exp. 1-3, n = 3, Fig. 3b
# Experimental: First, we studied the behaviour of single FtsA proteins on the membrane surface.
# After 5 min of incubation, single molecule time lapses were acquired every 125, 250, 500, and 1000 and 2000 ms, with an exposure time of 50 ms. Subsequently, the bulk concentration of FtsA was increased to 0.2/0.4/0.8 µM and time lapses were repeated as described above.
# Single molecules of FtsA or FtsZ were tracked using the TrackMate plugin from ImageJ[43]. To obtain the residence time of FtsZ and FtsA, we performed a residence time analysis as described before[40],[47]. Shortly, single molecules were imaged at different acquisition rates (0.1–2 s) and the lifetime of the molecules was extracted from each data set. To account for photobleaching effect, the obtained lifetimes were plotted against the acquisition rate. […] Furthermore, we extracted the diffusion coefficient of FtsA single molecules at increasing concentrations. For this, we filtered the obtained data, by considering only trajectories which are present on the membrane for more than 0.4 s. […] Subsequently, the diffusion coefficient of FtsA molecules was estimated by fitting an MSD curve to each individual trajectory.
# [2] = Membrane binding of FtsA by QCM-D
# Experimental: To quantify the intrinsic membrane-affinity of the two versions of FtsA, we used Quartz Crystal Microbalance with Dissipation (QCM-D) and measured the hydrated mass of adsorbed protein on a membrane surface.
# QCM-D experiments were performed with the QSense Analyzer from Biolin Scientific, equipped with silica-coated sensor (QSX 303). The sensors were cleaned for 10 s in a Zepto plasma cleaner, mounted in the QCM-D chambers and the acquisition of the experiment was first performed in the reaction buffer (50 mM Tris-HCl [pH 7.4], 150 mM KCl and 5 mM MgCl2). The supported lipid membrane was formed by rupturing 0.5 mM small unilamellar vesicles (SUVs) in the presence of MgCl2. The lipids used were 1,2-dioleoyl-sn-glycero-3-phosphocholine (DOPC) and 1,2-dioleoyl-sn-glycero-3-phospho-(1′-rac-glycerol) (DOPG) at a ratio of 67:33 mol%. After bilayer formations, the reaction buffer supplemented with 2 mM ATP, 2 mM GTP and 1 mM DTT was injected and the signal was recorded until a stable equilibrium was reached. Subsequently, increasing concentrations of FtsA were injected in the QCM-D chamber and changes in frequency and dissipation were monitored in real-time. The flow rate used in all experiments was 25 µl min^−1, and the temperature was set to 25 °C. To estimate the membrane-binding affinity, we extracted the frequency changes of the 5th acoustic harmonic for different FtsA concentrations and fitted a Hill equation y=S+(E−S)⋅(x^n/k^n+x^n) , where S is the starting point, E the end point, n is the Hill coefficient and k the dissociation constant. The measured binding affinity is an upper estimate, because QCM-D accounts not only on the dry molecular mass, but also on the hydration shell of the molecular assembly.
# FtsZ [3] = conditions: for FtsZ autocorrelation T: mean; for Autocorrelation Decay Tau: Fig. S2i, + FtsN
# From the text: To measure reorganization dynamics of FtsZ filaments, we used a temporal correlation analysis based on the Image CorrelationJ 1o plugin. We quantified the PCC between the first frame to subsequent frames with increasing time lag (∆t). The decrease in the PCC was plotted against ∆t to obtain autocorrelation curves. Slower decay indicates more persistent structures. The rates of decay were extracted by fitting monoexponential decay to the autocorrelation curves y=a⋅e^−b⋅t+k , where a is the starting point, b is the decay rate and k is the final offset. The half time of the monoexponential decay was calculated via the decay rate.
# FtsZ [4] = test system: FtsZ;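 for Autocorrelation Decay Tau: FtsZ filament patterns imaged by time-lapse TIRF microscopy, one frame per 2 s, with ATP and GTP, Pearson correlation of first frame versus later frames, monoexponential fit, slower decay means persistent structures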;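 for FtsZ autocorrelation T: FtsZ filament patterns imaged by time-lapse TIRF microscopy, one frame per 2 s, with ATP and GTP, Pearson correlation of first frame versus later frames, monoexponential fit, slower decay means persistent structures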;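 for FtsZ autocorrelation: FtsZ filament patterns imaged by time-lapse TIRF microscopy, one frame per 2 s, with ATP and GTP, Pearson correlation of first frame versus later frames, monoexponential fit, slower decay means persistent structures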;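 for PCC FtsA/FtsZ, mean of experiment (head 'Fig.1e PCC'; n and values fit Fig. 1f PCCdiff): pearson correlation of FtsA and FtsZ channels in dual-colour TIRF movies after subtracting consecutive frames to isolate growing filament ends, one frame per 2 s, ATP and GTP present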;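 for PCCdiff FtsA/FtsZ: pearson correlation of FtsA and FtsZ channels in dual-colour TIRF movies after subtracting consecutive frames to isolate growing filament ends, one frame per 2 s, ATP and GTP present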
# From the text: For this aim, we prepared differential time lapse movies[24], where we subtract the intensities of consecutive frames to selectively visualize the growing ends of filament bundles (Fig. 1d). We then calculated the Pearson correlation coefficient between the two channels of the differential movies (PCCdiff), which quantifies the covariation of the fluorescence signals for FtsA and FtsZ at the growing end of a filament bundle with a time resolution of the acquisition rate[4],[23],[24].
# Treadmilling dynamics, were quantified using an automated image analysis protocol previously developed by our group[24]. To visualize colocalization of the co-treadmilling FtsZ & FtsA filaments, we used dual-colour videos obtained at an acquisition rate of one frame per 2 s. The two channels were aligned using FIJI’s 3TP align plugin. Both channels were then subjected to the image subtraction protocol and colocalization was measured as described above.
# FtsZ [5] = conditions: 1.25 µM FtsZ, FtsA 0.1–0.8 µM
# Experimental: Additionally, the reaction chamber contained 4 mM ATP and 4 mM GTP, as well as a scavenging system to minimize photobleaching effects: 30 mM d-glucose, 0.050 mg ml^−1 Glucose Oxidase, 0.016 mg ml^−1 Catalase, 1 mM DTT and 1 mM Trolox. Prior addition of all components a corresponding buffer volume was removed from the chamber to obtain a total reaction volume of 100 µl. The dynamic protein pattern was monitored by time-lapse TIRF microscopy at one frame per 2 s and 50 ms exposure time.
# Treadmilling dynamics, were quantified using an automated image analysis protocol previously developed by our group. To visualize colocalization of the co-treadmilling FtsZ & FtsA filaments, we used dual-colour videos obtained at an acquisition rate of one frame per 2 s. The two channels were aligned using FIJI’s 3TP align plugin. Both channels were then subjected to the image subtraction protocol and colocalization was measured as described above.
substance,measurement,setting,value
"FtsA WT: wild-type E. coli actin-homologue FtsA, membrane anchor of FtsZ",Recruitment rate of FtsN to FtsZ filaments,FtsA/Z co-filaments; Concentration 0.10 µM,2.60
same,Recruitment rate of FtsN to FtsZ filaments,FtsA/Z co-filaments; Concentration 0.20 µM,1.05
same,Recruitment rate of FtsN to FtsZ filaments,FtsA/Z co-filaments; Concentration 0.40 µM,0.99
same,Recruitment rate of FtsN to FtsZ filaments,FtsA/Z co-filaments; Concentration 0.80 µM,0.85
same,Single Molecule Diffusion Constant,"[1]; 0.1 µM FtsA, Exp. 1",0.1660 µm2/s
same,Single Molecule Diffusion Constant,"[1]; 0.1µM FtsA, Exp. 2",0.0799 µm2/s
same,Single Molecule Diffusion Constant,"[1]; 0.1 µM FtsA, Exp. 3",0.1610 µm2/s
same,Diffusion Coefficient,[1]; 0.1 µM FtsA,0.14 ± 0.04 µm^2/s
same,Single Molecule Diffusion Constant,"[1]; 0.2 µM FtsA, Exp. 1",0.0839 µm2/s
same,Single Molecule Diffusion Constant,"[1]; 0.2µM FtsA, Exp. 2",0.0498 µm2/s
same,Single Molecule Diffusion Constant,"[1]; 0.2 µM FtsA, Exp. 3",0.0248 µm2/s
same,"Single Molecule Diffusion Constant, mean",[1]; 0.2 µM FtsA,0.053 µm2/s and 0.0528 µm2/s
same,Single Molecule Diffusion Constant,"[1]; 0.4 µM FtsA, Exp. 1",0.0130 µm2/s
same,Single Molecule Diffusion Constant,"[1]; 0.4µM FtsA, Exp. 2",0.0096 µm2/s
same,Single Molecule Diffusion Constant,"[1]; 0.4 µM FtsA, Exp. 3",0.0225 µm2/s
same,"Single Molecule Diffusion Constant, mean",[1]; 0.4 µM FtsA,0.015 µm2/s and 0.0150 µm2/s
same,Single Molecule Diffusion Constant,"[1]; 0.8 µM FtsA, Exp. 1",0.0048 µm2/s
same,Single Molecule Diffusion Constant,"[1]; 0.8µM FtsA, Exp. 2",0.0025 µm2/s
same,Single Molecule Diffusion Constant,"[1]; 0.8 µM FtsA, Exp. 3",0.0035 µm2/s
same,Diffusion Coefficient,[1]; 0.8 µM FtsA,0.004 ± 0.001 µm^2/s
same,Mean of QCM-D experiments,[2]; 0.01 µM,1.23
same,Mean of QCM-D experiments,[2]; 0.05 µM,3.38
same,Mean of QCM-D experiments,[2]; 0.10 µM,7.01
same,amount of membrane-bound protein saturated at,[2]; QCM-D,0.8 µM
same,Kd,"[2]; QCM-D, Hill fit, 5th harmonic, DOPC:DOPG 67:33 mol%, pH 7.4, 150 mM KCl, 5 mM MgCl2, 2 mM ATP, 2 mM GTP, 25 °C, n = 2, upper estimate",0.21 ± 0.01 µM
same,FtsZ autocorrelation,"FtsZ [3]; 0.1 µM FtsA, Exp. 1",103.16 s
same,FtsZ autocorrelation,"FtsZ [3]; 0.1µM FtsA, Exp. 2",95.06 s
same,FtsZ autocorrelation T,FtsZ [3]; 0.10 µM FtsA,86.22 s
same,FtsZ autocorrelation,"FtsZ [3]; 0.2 µM FtsA, Exp. 1",137.57 s
same,FtsZ autocorrelation,"FtsZ [3]; 0.2µM FtsA, Exp. 2",43.74 s
same,FtsZ autocorrelation T,FtsZ [3]; 0.20 µM FtsA,87.69 s
same,FtsZ autocorrelation,"FtsZ [3]; 0.4 µM FtsA, Exp. 1",70.56 s
same,FtsZ autocorrelation,"FtsZ [3]; 0.4µM FtsA, Exp. 2",64.54 s
same,FtsZ autocorrelation T,FtsZ [3]; 0.40 µM FtsA,64.93 s
same,FtsZ autocorrelation,"FtsZ [3]; 0.8 µM FtsA, Exp. 1",56.36 s
same,FtsZ autocorrelation,"FtsZ [3]; 0.8µM FtsA, Exp. 2",98.59 s
same,Autocorrelation Decay Tau,FtsZ [3]; replicate 1,3.11 min
same,Autocorrelation Decay Tau,FtsZ [3]; replicate 2,2.08 min
same,Autocorrelation Decay Tau,FtsZ [3]; replicate 3,2.02 min
same,"PCC FtsA/FtsZ, mean of experiment (head 'Fig.1e_PCC'; n and values fit Fig. 1f PCCdiff)","FtsZ [4]; 0.1µM FtsAs, replicate column 1",0.69
same,"PCC FtsA/FtsZ, mean of experiment (head 'Fig.1e_PCC'; n and values fit Fig. 1f PCCdiff)","FtsZ [4]; 0.1µM FtsAs, replicate column 2",0.76
same,"PCC FtsA/FtsZ, mean of experiment (head 'Fig.1e_PCC'; n and values fit Fig. 1f PCCdiff)","FtsZ [4]; 0.1µM FtsAs, replicate column 3",0.71
same,"PCC FtsA/FtsZ, mean of experiment (head 'Fig.1e_PCC'; n and values fit Fig. 1f PCCdiff)","FtsZ [4]; 0.1µM FtsAs, replicate column 4",0.71
same,"PCC FtsA/FtsZ, mean of experiment (head 'Fig.1e_PCC'; n and values fit Fig. 1f PCCdiff)","FtsZ [4]; 0.1µM FtsAs, replicate column 5",0.86
same,"PCC FtsA/FtsZ, mean of experiment (head 'Fig.1e_PCC'; n and values fit Fig. 1f PCCdiff)","FtsZ [4]; 0.1µM FtsAs, replicate column 6",0.67
same,"PCC FtsA/FtsZ, mean of experiment (head 'Fig.1e_PCC'; n and values fit Fig. 1f PCCdiff)","FtsZ [4]; 0.2µM FtsAs, replicate column 1",0.62
same,"PCC FtsA/FtsZ, mean of experiment (head 'Fig.1e_PCC'; n and values fit Fig. 1f PCCdiff)","FtsZ [4]; 0.2µM FtsAs, replicate column 2",0.58
same,"PCC FtsA/FtsZ, mean of experiment (head 'Fig.1e_PCC'; n and values fit Fig. 1f PCCdiff)","FtsZ [4]; 0.2µM FtsAs, replicate column 3",0.67
same,"PCC FtsA/FtsZ, mean of experiment (head 'Fig.1e_PCC'; n and values fit Fig. 1f PCCdiff)","FtsZ [4]; 0.2µM FtsAs, replicate column 4",0.71
same,"PCC FtsA/FtsZ, mean of experiment (head 'Fig.1e_PCC'; n and values fit Fig. 1f PCCdiff)","FtsZ [4]; 0.2µM FtsAs, replicate column 5",0.74
same,"PCC FtsA/FtsZ, mean of experiment (head 'Fig.1e_PCC'; n and values fit Fig. 1f PCCdiff)","FtsZ [4]; 0.2µM FtsAs, replicate column 6",0.57
same,PCCdiff FtsA/FtsZ,"FtsZ [4]; 0.4 µM FtsA, 1.25 µM FtsZ, mean ± s.d., p-value 1.82 × 10^−4",0.18 ± 0.04
same,"PCC FtsA/FtsZ, mean of experiment (head 'Fig.1e_PCC'; n and values fit Fig. 1f PCCdiff)","FtsZ [4]; 0.4µM FtsAs, replicate column 1",0.18
same,"PCC FtsA/FtsZ, mean of experiment (head 'Fig.1e_PCC'; n and values fit Fig. 1f PCCdiff)","FtsZ [4]; 0.4µM FtsAs, replicate column 2",0.12
same,"PCC FtsA/FtsZ, mean of experiment (head 'Fig.1e_PCC'; n and values fit Fig. 1f PCCdiff)","FtsZ [4]; 0.4µM FtsAs, replicate column 3",0.23
same,"PCC FtsA/FtsZ, mean of experiment (head 'Fig.1e_PCC'; n and values fit Fig. 1f PCCdiff)","FtsZ [4]; 0.8µM FtsAs, replicate column 1",0.10
same,"PCC FtsA/FtsZ, mean of experiment (head 'Fig.1e_PCC'; n and values fit Fig. 1f PCCdiff)","FtsZ [4]; 0.8µM FtsAs, replicate column 2",0.12
same,"PCC FtsA/FtsZ, mean of experiment (head 'Fig.1e_PCC'; n and values fit Fig. 1f PCCdiff)","FtsZ [4]; 0.8µM FtsAs, replicate column 3",0.05
same,effect on FtsZ treadmilling velocity,FtsZ [5],could not observe a significant effect
